Data: US12622909B2, “Allosteric EGFR inhibitors and methods of use thereof” (Dana-Farber Cancer Institute, Inc., priority 2019, dated 2026)
Counter-ions that a name gives are not always drawn. Like-named read-outs stand apart in the source and are kept apart here.

Assays:
EGFR L858R = EGFR L858R (Homo sapiens, UniProt P00533, L858R); test: HTRF-based EGFR biochemical assay (L858R); settings: 100 μM ATP, enzyme 0.1 nM
Experimental: (§1) EGFR biochemical activity measurements were carried out using the homogeneous time-resolved fluorescence (HTRF) assay (Cisbio). Inhibitors and DMSO normalizations were first dispensed to empty black low-volume 384-well plates (Corning) with D300 digital liquid dispenser (HP). All reactions were carried out at room temperature and solutions were added to plates with a Multidrop Combi Reagent Dispenser (ThermoFisher). The reaction mixture (10 μL final volume) contained 1 μM tyrosine kinase peptide-biotin substrate and mutant EGFR in a reaction buffer (50 mM HEPES pH 7.0, 5 mM MgCl2, 1 mM MnCl2, 0.01% BSA, 2 mM TCEP, 0.1 mM NaVO4). […] Enzyme reaction solution (2× concentrations, 5 μL) was added to 384-well plates containing compounds and incubated for 30 mins. Enzyme reactions were initiated with the addition of 5 μL of ATP to a final concentration of 100 μM and reacted for 20 mins. Reactions were quenched with the addition of 10 μL of phospho-tyrosine antibody-Europium(III) cryptate (1-to-180 volume ratio) and Streptavidin-XL665 (46.7 nM) in EDTA-containing detection buffer, then incubated at room temperature for 1 hour, and read with a PHERAstar plate reader (excitation=337 nm, emission=620 nm and 665 nm).

EGFR L858R/T790M = EGFR L858R/T790M (Homo sapiens, UniProt P00533, L858R/T790M); test: HTRF-based EGFR biochemical assay (L858R/T790M); settings: 100 μM ATP, enzyme 0.02 nM
Chain of EGFR L858R/T790M (P00533 25-1210 T790M/L858R): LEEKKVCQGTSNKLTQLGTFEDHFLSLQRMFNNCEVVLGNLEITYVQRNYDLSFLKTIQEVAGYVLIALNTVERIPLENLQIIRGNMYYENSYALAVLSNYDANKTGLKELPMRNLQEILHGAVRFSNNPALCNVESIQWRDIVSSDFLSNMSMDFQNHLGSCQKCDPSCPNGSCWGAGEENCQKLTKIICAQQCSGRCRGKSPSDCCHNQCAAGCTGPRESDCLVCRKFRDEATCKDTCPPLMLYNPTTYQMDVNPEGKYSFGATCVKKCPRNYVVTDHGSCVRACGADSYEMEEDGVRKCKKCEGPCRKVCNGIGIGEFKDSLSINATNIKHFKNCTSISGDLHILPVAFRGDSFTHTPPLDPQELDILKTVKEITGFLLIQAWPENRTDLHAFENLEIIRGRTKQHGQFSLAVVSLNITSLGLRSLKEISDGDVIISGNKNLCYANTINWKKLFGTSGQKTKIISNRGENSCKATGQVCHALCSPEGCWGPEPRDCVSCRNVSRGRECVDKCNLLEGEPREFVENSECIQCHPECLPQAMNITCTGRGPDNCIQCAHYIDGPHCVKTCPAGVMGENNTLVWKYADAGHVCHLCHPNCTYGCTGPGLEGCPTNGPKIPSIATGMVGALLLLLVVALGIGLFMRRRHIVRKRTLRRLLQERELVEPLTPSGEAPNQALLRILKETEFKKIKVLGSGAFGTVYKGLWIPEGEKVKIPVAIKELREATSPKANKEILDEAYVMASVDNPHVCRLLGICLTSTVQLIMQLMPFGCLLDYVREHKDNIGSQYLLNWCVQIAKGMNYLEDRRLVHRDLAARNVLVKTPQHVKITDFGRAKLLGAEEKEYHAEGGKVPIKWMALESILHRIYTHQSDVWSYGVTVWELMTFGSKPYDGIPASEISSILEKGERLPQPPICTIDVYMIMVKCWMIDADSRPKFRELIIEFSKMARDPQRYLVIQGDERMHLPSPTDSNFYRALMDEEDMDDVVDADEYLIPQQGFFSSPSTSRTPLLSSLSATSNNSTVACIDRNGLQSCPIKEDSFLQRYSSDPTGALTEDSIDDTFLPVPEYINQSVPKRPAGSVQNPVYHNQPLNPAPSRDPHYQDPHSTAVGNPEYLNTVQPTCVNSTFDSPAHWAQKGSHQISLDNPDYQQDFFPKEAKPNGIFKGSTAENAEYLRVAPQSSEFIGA
Experimental: as §1, with “mins.” for “mins. Reactions were quenched with the addition of 10 μL of phospho-tyrosine antibody-Europium(III) cryptate (1-to-180 volume ratio) and Streptavidin-XL665 (46.7 nM) in EDTA-containing detection buffer, then incubated at room temperature for 1 hour, and read with a PHERAstar plate reader (excitation=337 nm, emission=620 nm and 665 nm).”

[1] = molecular target: EGFR L858R/T790M mutant Ba/F3 cells (Homo sapiens, UniProt P00533, T790M/L858R, cells depend on it); test: Ba/F3 cell proliferation (Cell Titer Glo); format: cell-based, murine; settings: 72 hours
Chain of EGFR L858R/T790M mutant Ba/F3 cells (P00533 whole entry T790M/L858R): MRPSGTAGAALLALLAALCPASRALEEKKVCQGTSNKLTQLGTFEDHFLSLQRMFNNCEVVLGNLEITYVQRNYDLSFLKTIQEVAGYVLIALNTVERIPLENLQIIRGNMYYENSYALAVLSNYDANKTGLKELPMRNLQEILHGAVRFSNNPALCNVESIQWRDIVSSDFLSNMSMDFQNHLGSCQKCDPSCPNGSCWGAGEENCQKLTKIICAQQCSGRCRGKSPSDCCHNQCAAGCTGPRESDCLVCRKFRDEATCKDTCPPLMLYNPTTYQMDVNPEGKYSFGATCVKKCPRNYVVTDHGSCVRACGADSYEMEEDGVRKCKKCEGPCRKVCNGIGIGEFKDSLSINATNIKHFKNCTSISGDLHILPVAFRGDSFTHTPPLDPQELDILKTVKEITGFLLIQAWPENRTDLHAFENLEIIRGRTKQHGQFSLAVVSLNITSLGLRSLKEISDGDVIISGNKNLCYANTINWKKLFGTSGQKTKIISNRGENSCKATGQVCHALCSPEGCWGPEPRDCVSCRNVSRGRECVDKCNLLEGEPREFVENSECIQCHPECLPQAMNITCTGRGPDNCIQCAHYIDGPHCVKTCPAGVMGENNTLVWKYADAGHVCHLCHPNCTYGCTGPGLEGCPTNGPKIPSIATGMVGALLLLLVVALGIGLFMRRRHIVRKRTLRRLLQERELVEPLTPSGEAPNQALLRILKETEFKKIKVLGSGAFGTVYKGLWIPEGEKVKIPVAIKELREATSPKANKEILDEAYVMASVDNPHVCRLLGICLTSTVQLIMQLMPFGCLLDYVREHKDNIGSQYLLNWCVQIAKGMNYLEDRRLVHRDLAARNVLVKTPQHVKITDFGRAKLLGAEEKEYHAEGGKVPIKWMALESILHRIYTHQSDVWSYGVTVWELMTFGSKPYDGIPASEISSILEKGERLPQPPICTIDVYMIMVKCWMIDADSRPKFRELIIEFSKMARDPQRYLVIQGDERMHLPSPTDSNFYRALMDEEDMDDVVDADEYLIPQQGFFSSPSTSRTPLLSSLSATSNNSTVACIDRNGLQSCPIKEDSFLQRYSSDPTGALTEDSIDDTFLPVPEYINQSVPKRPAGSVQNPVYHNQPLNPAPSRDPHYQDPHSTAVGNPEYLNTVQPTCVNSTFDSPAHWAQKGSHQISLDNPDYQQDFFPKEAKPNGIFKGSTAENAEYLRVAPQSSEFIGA
Excerpt: All cell lines were maintained in RPMI 1640 (Cellgro; Mediatech Inc., Herndon, CA) supplemented with 10% FBS, 100 units/mL penicillin, 100 units/mL streptomycin. The EGFR I941R mutation was introduced via site directed mutagenesis using the Quick Change Site-Directed Mutagenesis kit (Stratagene; La Jolla, CA) according to the manufacturer's instructions. All constructs were confirmed by DNA sequencing. The constructs were shuttled into the retroviral vector JP1540 using the Cre-recombination system (Agilent Technologies, Santa Clara, CA). Ba/F3 cells were then infected with retrovirus per standard protocols, as described previously (Zhou, et al, Nature 2009). Stable clones were obtained by selection in puromycin (2 μg/ml).
Growth and inhibition of growth was assessed by the Cell Titer Glo assay (Promega, Madison, WI) and was performed according to the manufacturer's instructions. The Cell Titer Glo assay is a luminescence-based method used to determine the number of viable cells based on quantitation of the ATP present, which is directly proportional to the amount of metabolically active cells present. […] All experimental points were set up in triplicates in 384-well plates and all experiments were repeated at least three times. […] The curves were fitted using a non-linear regression model with a sigmoidal dose response.

[2] = in combination with 1 μg/ml cetuximab, read-out: Cell IC50 BaF3 L858R/T790M compound + cetuximab
[3] = single agent, read-out: Cell IC50 EGFR BaF3 L858R/T790M

Chain of EGFR L858R (P00533 25-1210 L858R): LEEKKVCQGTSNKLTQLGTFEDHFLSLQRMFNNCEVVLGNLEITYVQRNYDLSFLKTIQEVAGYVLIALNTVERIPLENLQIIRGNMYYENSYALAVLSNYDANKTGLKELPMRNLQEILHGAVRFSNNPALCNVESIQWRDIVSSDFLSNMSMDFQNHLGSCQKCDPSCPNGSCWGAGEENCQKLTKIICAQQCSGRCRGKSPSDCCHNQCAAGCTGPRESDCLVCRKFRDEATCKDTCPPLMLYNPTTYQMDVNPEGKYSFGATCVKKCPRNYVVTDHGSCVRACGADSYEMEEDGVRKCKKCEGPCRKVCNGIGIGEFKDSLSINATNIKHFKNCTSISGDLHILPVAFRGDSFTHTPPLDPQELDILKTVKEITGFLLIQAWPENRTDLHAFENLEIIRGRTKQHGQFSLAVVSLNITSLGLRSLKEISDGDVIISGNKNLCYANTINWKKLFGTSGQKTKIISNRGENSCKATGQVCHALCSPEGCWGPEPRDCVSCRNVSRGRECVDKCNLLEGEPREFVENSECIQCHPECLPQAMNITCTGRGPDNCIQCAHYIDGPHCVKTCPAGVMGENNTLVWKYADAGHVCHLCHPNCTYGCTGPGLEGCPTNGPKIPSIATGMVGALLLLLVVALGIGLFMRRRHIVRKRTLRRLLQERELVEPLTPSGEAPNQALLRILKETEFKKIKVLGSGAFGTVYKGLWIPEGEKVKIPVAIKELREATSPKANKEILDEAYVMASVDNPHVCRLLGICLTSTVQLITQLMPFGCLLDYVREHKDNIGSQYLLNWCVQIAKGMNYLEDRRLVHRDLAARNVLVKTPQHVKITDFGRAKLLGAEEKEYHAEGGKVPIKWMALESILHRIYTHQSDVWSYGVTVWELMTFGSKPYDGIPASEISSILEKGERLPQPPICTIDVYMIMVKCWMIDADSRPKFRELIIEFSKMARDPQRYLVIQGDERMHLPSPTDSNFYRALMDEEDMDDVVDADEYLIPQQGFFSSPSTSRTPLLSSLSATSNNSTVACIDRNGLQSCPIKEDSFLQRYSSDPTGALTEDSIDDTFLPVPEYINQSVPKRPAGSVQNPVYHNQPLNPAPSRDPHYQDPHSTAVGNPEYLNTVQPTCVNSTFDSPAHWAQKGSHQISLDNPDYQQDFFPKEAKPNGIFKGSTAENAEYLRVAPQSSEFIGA

SMILES | IC50 (EGFR L858R) | IC50 (EGFR L858R/T790M) | GI50 [1, 2] | GI50 [1, 3]
CN1CCN(c2ccc(-c3ccc4c(=O)n(C(C(=O)Nc5nccs5)c5ccccc5)ccc4c3)cc2)CC1 (stereo not drawn) [Compound 017, 2-(6-(4-(4-Methylpiperazin-1-yl)-phenyl)-1-oxoisoquinolin-2(1H)-yl)-2-phenyl-N-(thiazol-2-yl)acetamide] | 7 nM | 3 nM | 62 nM | 1270 nM
O=C(Nc1nccs1)C(c1ccccc1)n1ccc2ccc(Br)cc2c1=O (stereo not drawn) [Compound 004, 2-(7-Bromo-1-oxoisoquinolin-2(1H)-yl)-2-phenyl-N-(thiazol-2-yl)-acetamide] | 521 nM | 29 nM | 790 nM | > 10000 nM
CN1CCN(c2ccc(-c3ccc4c(=O)n(C(C(=O)Nc5nccs5)c5ccccc5)ncc4c3)cc2)CC1 (stereo not drawn) [Compound 027, 2-(6-(4-(4-Methylpiperazin-1-yl)-phenyl)-1-oxophthalazin-2(1H)-yl)-2-phenyl-N-(thiazol-2-yl)acetamide] | 209 nM | 18 nM | 1700 nM | 3460 nM
CN1CCN(c2ccc(-c3ccc4ncn(C(C(=O)Nc5nccs5)c5ccccc5)c(=O)c4c3)cc2)CC1 (stereo not drawn) [Compound 015, 2-(6-(4-(4-Methylpiperazin-1-yl)-phenyl)-4-oxoquinazolin-3(4H)-yl)-2-phenyl-N-(thiazol-2-yl)acetamide] | 7 nM | 1 nM | 20 nM | 2320 nM
O=C(Nc1nccs1)C(c1cccc(F)c1)n1ccc2cc(Br)ccc2c1=O (stereo not drawn) [Compound 008, 2-(6-Bromo-1-oxoisoquinolin-2(1H)-yl)-2-(3-fluorophenyl)-N-(thiazol-2-yl)acetamide] | > 1000 nM | 64 nM | 2500 nM | > 10000 nM
CN1CCC(c2ccc(-c3ccc4ccn(C(C(=O)Nc5nccs5)c5cccc(F)c5)c(=O)c4c3)cc2)CC1 (stereo not drawn) [Compound 024, 2-(3-Fluorophenyl)-2-(7-(4-(1-methylpiperidin-4-yl)phenyl)-1-oxoisoquinolin-2(1H)-yl)-N-(thiazol-2-yl)-acetamide] | 7 nM | 1 nM | 90 nM | 1770 nM
CN1CCC(c2ccc(-c3ccc4ccn(C(C(=O)Nc5nccs5)c5ccccc5)c(=O)c4c3)cc2)CC1 (stereo not drawn) [Compound 018, 2-(7-(4-(1-Methylpiperidin-4-yl)-phenyl)-1-oxoisoquinolin-2(1H)-yl)-2-phenyl-N-(thiazol-2-yl)acetamide] | 12 nM | 2 nM | 72 nM | 1520 nM
CN1CCC(c2ccc(-c3cc(F)c4ncn(C(C(=O)Nc5nccs5)c5ccccc5)c(=O)c4c3)cc2)CC1 (stereo not drawn) [Compound 060, 2-(8-Fluoro-6-(4-(1-methylpiperidin-4-yl)phenyl)-4-oxoquinazolin-3-(4H)-yl)-2-phenyl-N-(thiazol-2-yl)-acetamide] | 4 nM | 0.6 nM | 9 nM | 710 nM
O=C(Nc1nccs1)C(c1ccccc1)n1cnc2ccc(Br)cc2c1=O (stereo not drawn) [Compound 002, 2-(6-Bromo-4-oxoquinazolin-3(4H)-yl)-2-phenyl-N-(thiazol-2-yl)-acetamide] | 275 nM | 35 nM | 980 nM | > 10000 nM
CN1CCN(c2ccc(-c3ccc4ccn(C(C(=O)Nc5nccs5)c5ccccc5)c(=O)c4c3)cc2)CC1 (stereo not drawn) [Compound 019, 2-(7-(4-(4-Methylpiperazin-1-yl)-phenyl)-1-oxoisoquinolin-2(1H)-yl)-2-phenyl-N-(thiazol-2-yl)acetamide] | 35 nM | 5 nM | 44 nM | 1850 nM

The remaining lines, values ahead:

IC50 (EGFR L858R) | IC50 (EGFR L858R/T790M) | GI50 [1, 2] | GI50 [1, 3] | SMILES
32 nM | 7 nM | 410 nM | 3970 nM | CN1CCC(c2ccc(-c3cnc4c(=O)n(C(C(=O)Nc5nccs5)c5ccccc5)cnc4c3)cc2)CC1 (stereo not drawn) [Compound 056, 2-(7-(4-(1-Methylpiperidin-4-yl)phenyl)-4-oxopyrido[3,2-d]pyrimidin-3(4H)-yl)-2-phenyl-N-(thiazol-2-yl)acetamide]
8 nM | 1 nM | 620 nM | 4200 nM | COc1cccc(F)c1C(C(=O)Nc1nccs1)n1cnc2ccc(-c3ccc(C4CCN(C)CC4)cc3)cc2c1=O (stereo not drawn) [Compound 078]
1 nM | 0.2 nM | 2 nM | 230 nM | CN1CCC(c2ccc(-c3ccc4ncn(C(C(=O)Nc5ccccn5)c5cc(F)ccc5O)c(=O)c4c3)cc2)CC1 (stereo not drawn) [Compound 082, 2-(5-Fluoro-2-hydroxyphenyl)-2-(6-(4-(1-methylpiperidin-4-yl)phenyl)-4-oxoquinazolin-3(4H)-yl)-N-(pyridin-2-yl)acetamide; hydrochloride]
35 nM | 17 nM | 2100 nM | 6460 nM | COc1cccc(F)c1C(C(=O)Nc1nccs1)n1cnc2ccc(-c3ccc(N4CCN(C)CC4)cc3)cc2c1=O (stereo not drawn) [Compound 077, 2-(2-Fluoro-6-methoxyphenyl)-2-(6-(4-(4-methylpiperazin-1-yl)phenyl)-4-exoquinazolin-3(4H)-yl)-N-(thiazol-2-yl)acetamide]
> 1000 nM | 283 nM | 790 nM | 2460 nM | Cc1nc2ccc(-c3ccc(C4CCN(C)CC4)cc3)cc2c(=O)n1C(C(=O)Nc1nccs1)c1ccccc1 (stereo not drawn) [Compound 044, 2-(2-Methyl-6-(4-(1-methylpiperidin-4-yl)phenyl)-4-oxoquinazolin-3(4H)-yl)-2-phenyl-N-(thiazol-2-yl)acetamide]
4 nM | 0.3 nM | 23 nM | 920 nM | CN1CCC(c2ccc(-c3ccc4c(F)cn(C(C(=O)Nc5nccs5)c5ccccc5)c(=O)c4c3)cc2)CC1 (stereo not drawn) [Compound 036, 2-(4-Fluoro-7-(4-(1-methylpiperidin-4-yl)phenyl)-1-oxoisoquinolin-2(1H)-yl)-2-phenyl-N-(thiazol-2-yl)acetamide]
> 1000 nM | 297 nM | 4100 nM | 4100 nM | Cc1nc2ccc(-c3ccc(N4CCN(C)CC4)cc3)cc2c(=O)n1C(C(=O)Nc1nccs1)c1ccccc1 (stereo not drawn) [Compound 045, 2-(2-Methyl-6-(4-(4-methylpiperazin-1-yl)phenyl)-4-oxoquinazolin-3(4H)-yl)-2-phenyl-N-(thiazol-2-yl)-acetamide]
6 nM | 3 nM | 66 nM | 5770 nM | CN1CCN(c2ccc(-c3ccc4ncn(C(C(=O)Nc5nccs5)c5c(O)cccc5F)c(=O)c4c3)cc2)CC1 (stereo not drawn) [Compound 085, 2-(2-Fluoro-6-hydroxyphenyl)-2-(6-(4-(4-methylpiperazin-1-yl)phenyl)-4-oxoquinazolin-3(4H)-yl)-N-(thiazol-2-yl)acetamide]
21 nM | 7 nM | 88 nM | 1580 nM | CN1CCC(c2ccc(-c3ccc4c(=O)n(C(C(=O)Nc5nccs5)c5cccc(F)c5)cnc4c3)cc2)CC1 (stereo not drawn) [Compound 028, 2-(3-Fluorophenyl)-2-(7-(4-(1-methyl-piperidin-4-yl)phenyl)-4-oxo-quinazolin-3(4H)-yl)-N-(thiazol-2-yl)-acetamide]
 |  | 28 nM | 4520 nM | O=C(Nc1nccs1)C(c1ccccc1)n1cnc2ccc(C#Cc3cccnc3)cc2c1=O (stereo not drawn) [Compound 061, 2-(4-Oxo-6-(pyridin-3-ylethynyl)quinazolin-3(4H)-yl)-2-phenyl-N-(thiazol-2-yl)acetamide]
